Reference: patent US20190161499A1, “PESTICIDALLY ACTIVE 1,2,4-TRIAZOLE DERIVATIVES” (SYNGENTA PARTICIPATIONS AG, priority 2015, published 2019)
Like-named read-outs stand apart in the source and are kept apart here.

Experiments:
[1] = system: Spodoptera littoralis (Egyptian Cotton Leaf Worm); experiment: Spodoptera littoralis cotton leaf disc spray test; assay type: in vivo; conditions: foliar, 72 h, application rate 200 ppm, L1 larvae, 3 days after infestation, read-out: control (at least one of mortality, anti-feedant effect, growth inhibition)
Procedure: Spodoptera littoralis (Egyptian Cotton Leaf Worm)
Cotton leaf discs were placed on agar in 24-well microtiter plates and sprayed with aqueous test solutions prepared from 10,000 ppm DMSO stock solutions. After drying, the leaf discs were infested with five L1 larvae. The samples were assessed for mortality, anti-feedant effect, and growth inhibition in comparison to untreated samples 3 days after infestation. Control of Spodoptera littoralis by a test sample is when at least one of mortality, anti-feedant effect, and growth inhibition is higher than the untreated sample.

[2] = system: Diabrotica Balteata (Corn Root Worm); experiment: whole plant or invertebrate; assay type: in vivo; conditions: 96 h, read-out: effect in at least one of the two categories (mortality or growth inhibition)
Procedure: Example B3: Diabrotica Balteata (Corn Root Worm)
Maize sprouts, placed on an agar layer in 24-well microtiter plates were treated with aqueous test solutions prepared from 10,000 ppm DMSO stock solutions by spraying. After drying, the plates were infested with L2 larvae (6 to 10 per well). The samples were assessed for mortality and growth inhibition in comparison to untreated samples 4 days after infestation.

[3] = application rate 200 ppm, L2 larvae, 4 days after infestation

SMILES	percent control (mortality, anti-feedant effect or growth inhibition) at 200 ppm [1]	percent effect (mortality or growth inhibition) at 200 ppm [2, 3]	percent effect (mortality or growth inhibition) at 200 ppm [2]
Cc1ccc(-n2nc(-c3ccc(Cl)cc3)nc2CN2CCC(c3ncccn3)CC2)cc1 [Example 1.52]	≥ 80%	≥ 80%	–
CCOC(=O)C1CCCN(Cc2nc(-c3ccc(Cl)cc3)nn2-c2ccccc2F)C1 (stereo not drawn) [Example 5.17]	–	≥ 80%	–
Fc1ccccc1-n1nc(-c2ccc(Cl)cc2)nc1CN1CCC(c2cscn2)CC1 [Example 1.119]	≥ 80%	≥ 80%	–
Fc1ccccc1-n1nc(-c2ccc(Cl)cc2)nc1CN1CCC(c2nccs2)CC1 [Example 1.115]	≥ 80%	≥ 80%	–
Fc1ccccc1-n1nc(-c2ccccc2)nc1CN1CCC(c2ncccn2)CC1 [Example 1.94]	≥ 80%	≥ 80%	–
Clc1ccc(-c2nc(CN3CCC(c4ncccn4)CC3)n(-c3ccc(Cl)c(Cl)c3)n2)cc1 [Example 1.50]	–	≥ 80%	–
Fc1ccccc1-n1nc(-c2ccc(Cl)cc2)nc1CN1CCC(c2ncno2)CC1 [Example 1.121]	–	≥ 80%	–
Fc1ccccc1-n1nc(-c2ccc(Cl)cc2)nc1CN1CC=C(c2ccc(Cl)cn2)CC1 [Example 3.1]	–	–	≥ 80%
Cc1ccc(-c2nc(CN3CCC(c4ncccn4)CC3)n(-c3ccccc3F)n2)cc1 [Example 1.95]	≥ 80%	≥ 80%	–
Cc1ccc(-n2nc(-c3ccc(Cl)cc3)nc2CN2CCC(c3ncccn3)CC2)cc1C [Example 1.73]	–	≥ 80%	–
Cc1nnc(C2CCN(Cc3nc(-c4ccc(Cl)cc4)nn3-c3ccccc3F)CC2)o1 [Example 1.118]	–	≥ 80%	–
Cc1ccc(-c2nc(CN3CCC(c4ncccn4)CC3)n(-c3ccccc3F)n2)cc1F [Example 1.92]	≥ 80%	≥ 80%	–
COc1ccc(-n2nc(-c3ccc(Cl)cc3)nc2CN2CCC(c3ncccn3)CC2)cc1 [Example 1.79]	≥ 80%	≥ 80%	–
COc1ccc(-c2nc(CN3CCC(c4ncccn4)CC3)n(-c3ccccc3F)n2)cc1 [Example 1.101]	≥ 80%	≥ 80%	–
Fc1ccccc1-n1nc(-c2ccc(Cl)cc2)nc1CN1CCC2(CC1)CC(C1CC1)=NO2 [Example 5.4]	≥ 80%	≥ 80%	–
Cc1cccc(-n2nc(-c3ccc(Cl)cc3)nc2CN2CCC(c3ncccn3)CC2)c1 [Example 1.51]	–	≥ 80%	–
Clc1ccc(-c2nc(CN3CCC(c4ncccn4)CC3)n(C3CCC3)n2)cc1 [Example 1.58]	–	≥ 80%	–
Fc1ccccc1-n1nc(Cc2ccc(Cl)cc2)nc1CN1CCC(c2ncccn2)CC1 [Example 1.91]	≥ 80%	≥ 80%	–
Clc1ccc(-c2nc(CN3CCC(c4ncccn4)CC3)n(-c3cc(Cl)ccc3Cl)n2)cc1 [Example 1.86]	–	≥ 80%	–
Fc1ccccc1-n1nc(-c2ccc(Cl)cc2)nc1CN1CCC(c2ncon2)CC1 [Example 1.113]	≥ 80%	≥ 80%	–
Cc1ccccc1-c1nc(CN2CCC(c3ncccn3)CC2)n(-c2ccccc2F)n1 [Example 1.36]	–	≥ 80%	–
Fc1ccccc1-n1nc(-c2ccc(Cl)cc2)nc1CN1CCC(c2ccncn2)CC1 [Example 1.116]	≥ 80%	≥ 80%	–

SMILES	percent control (mortality, anti-feedant effect or growth inhibition) at 200 ppm [1]	percent effect (mortality or growth inhibition) at 200 ppm [2, 3]	percent effect (mortality or growth inhibition) at 200 ppm [2]
Cc1cccc(-n2nc(-c3ccc(Cl)cc3)nc2CN2CCC(c3ncccn3)CC2)c1C [Example 1.82]	≥ 80%	≥ 80%	–
Cn1ccnc1C1CCN(Cc2nc(-c3ccc(Cl)cc3)nn2-c2ccccc2F)CC1 [Example 1.117]	≥ 80%	≥ 80%	–
Cc1ccc(-n2nc(-c3ccc(Cl)cc3)nc2CN2CCC(c3ncccn3)CC2)c(C)c1 [Example 1.87]	≥ 80%	≥ 80%	–
Clc1ccc(-c2nc(CN3CCC(c4ncccn4)CC3)n(-c3ccc(Cl)cc3Cl)n2)cc1 [Example 1.65]	≥ 80%	≥ 80%	–
CC(C)n1nc(-c2ccc(Cl)cc2)nc1CN1CCC(c2ncccn2)CC1 [Example 1.60]	–	≥ 80%	–
Clc1ccc(-c2nc(CN3CCC(c4ncccn4)CC3)n(-c3cccc(Cl)c3)n2)cc1 [Example 1.69]	–	≥ 80%	–
Fc1ccccc1-n1nc(-c2ccc(Cl)cc2)nc1CN1CCC(C(F)(F)F)CC1 [Example 1.5]	–	≥ 80%	–
Cc1ccc(C)c(-n2nc(-c3ccc(Cl)cc3)nc2CN2CCC(c3ncccn3)CC2)c1 [Example 1.74]	–	≥ 80%	–
CCOC(=O)C1CCCCN1Cc1nc(-c2ccc(Cl)cc2)nn1-c1ccccc1F (stereo not drawn) [Example 5.22]	–	≥ 80%	–
CCC1CCCCN1Cc1nc(-c2ccc(Cl)cc2)nn1-c1ccccc1F (stereo not drawn) [Example 5.16]	–	≥ 80%	–
Fc1ccccc1-n1nc(-c2cccs2)nc1CN1CCC(c2ncccn2)CC1 [Example 1.96]	–	≥ 80%	–
CCC1CCCN(Cc2nc(-c3ccc(Cl)cc3)nn2-c2ccccc2F)C1 (stereo not drawn) [Example 5.21]	–	≥ 80%	–
Clc1ccc(-c2nc(CN3CCC(c4ncccn4)CC3)n(-c3cccc(Br)c3)n2)cc1 [Example 1.57]	–	≥ 80%	–
CC(C)c1nc(CN2CCC(c3ncccn3)CC2)n(-c2ccccc2F)n1 [Example 1.100]	–	≥ 80%	–
Fc1ccccc1-n1nc(C2CC2)nc1CN1CCC(c2ncccn2)CC1 [Example 1.93]	–	≥ 80%	–
Cc1cccc(-c2nc(CN3CCC(c4ncccn4)CC3)n(-c3ccccc3F)n2)c1 [Example 1.37]	≥ 80%	≥ 80%	–
COc1cccc(-n2nc(-c3ccc(Cl)cc3)nc2CN2CCC(c3ncccn3)CC2)c1 [Example 1.75]	–	≥ 80%	–
CC1CCCN1Cc1nc(-c2ccc(Cl)cc2)nn1-c1ccccc1F (stereo not drawn) [Example 5.30]	–	≥ 80%	–
Fc1ccccc1-n1nc(-c2ccccn2)nc1CN1CCC(c2ncccn2)CC1 [Example 1.102]	–	≥ 80%	–
Fc1ccccc1-n1nc(-c2ccc(Cl)cc2)nc1CN1CCC(c2ncc[nH]2)CC1 [Example 1.112]	–	≥ 80%	–
CCc1nc(CN2CCC(c3ncccn3)CC2)n(-c2ccccc2F)n1 [Example 1.99]	–	≥ 80%	–
